In PubChem BioAssay (NCI):
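The compound was tested at five concentrations on cells cultured in 96-well plates, with a 48-hour exposure period. TGI marks complete inhibition of growth.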

Assays:
Test in all cases: growth of human tumour cells (NCI), 48 h
786-0 renal = test system: 786-0 renal
A498 renal = test system: A498 renal
A549 NSCLC = test system: A549 NSCLC
ACHN renal = test system: ACHN renal
CAKI-1 renal = test system: CAKI-1 renal
CCRF-CEM leukemia = test system: CCRF-CEM leukemia
COLO 205 colon = test system: COLO 205 colon
DLD-1 colon = test system: DLD-1 colon
DMS 114 small cell lung = test system: DMS 114 small cell lung
DMS 273 small cell lung = test system: DMS 273 small cell lung
EKVX NSCLC = test system: EKVX NSCLC
HCC-2998 colon = test system: HCC-2998 colon
HCT-116 colon = test system: HCT-116 colon
HCT-15 colon = test system: HCT-15 colon
HL-60(TB) leukemia = test system: HL-60(TB) leukemia
HOP-18 NSCLC = test system: HOP-18 NSCLC
HOP-62 NSCLC = test system: HOP-62 NSCLC
HT29 colon = test system: HT29 colon
IGROV1 ovarian = test system: IGROV1 ovarian
K-562 leukemia = test system: K-562 leukemia
KM12 colon = test system: KM12 colon
KM20L2 colon = test system: KM20L2 colon
LOX IMVI melanoma = test system: LOX IMVI melanoma
LXFL 529 NSCLC = test system: LXFL 529 NSCLC
M14 melanoma = test system: M14 melanoma
M19-MEL melanoma = test system: M19-MEL melanoma
MALME-3M melanoma = test system: MALME-3M melanoma
MOLT-4 leukemia = test system: MOLT-4 leukemia
NCI-H226 lung = test system: NCI-H226 lung
NCI-H23 lung = test system: NCI-H23 lung
NCI-H460 lung = test system: NCI-H460 lung
NCI-H522 lung = test system: NCI-H522 lung
OVCAR-3 ovarian = test system: OVCAR-3 ovarian
OVCAR-4 ovarian = test system: OVCAR-4 ovarian
OVCAR-5 ovarian = test system: OVCAR-5 ovarian
OVCAR-8 ovarian = test system: OVCAR-8 ovarian
RPMI-8226 leukemia = test system: RPMI-8226 leukemia
RXF 393 renal = test system: RXF 393 renal
RXF-631 renal = test system: RXF-631 renal
SF-268 CNS = test system: SF-268 CNS
SF-295 CNS = test system: SF-295 CNS
SF-539 CNS = test system: SF-539 CNS
SK-MEL-2 melanoma = test system: SK-MEL-2 melanoma
SK-MEL-28 melanoma = test system: SK-MEL-28 melanoma
SK-MEL-5 melanoma = test system: SK-MEL-5 melanoma
SK-OV-3 ovarian = test system: SK-OV-3 ovarian
SN12C renal = test system: SN12C renal
SNB-19 CNS = test system: SNB-19 CNS
SNB-75 CNS = test system: SNB-75 CNS
SNB-78 CNS = test system: SNB-78 CNS
SR leukemia = test system: SR leukemia
SW-620 colon = test system: SW-620 colon
TK-10 renal = test system: TK-10 renal
U251 CNS = test system: U251 CNS
UACC-257 melanoma = test system: UACC-257 melanoma
UACC-62 melanoma = test system: UACC-62 melanoma
UO-31 renal = test system: UO-31 renal
XF 498 CNS = test system: XF 498 CNS

Measured: TGI

COC(=O)C(Cc1nc2ccc(Cl)cc2[nH]c1=O)C(=O)C(=O)Nc1cc(C)ccc1C (stereo not drawn)
> 100 µM: all assays above
